± gives the expanded uncertainty stated by the source.
Tests used:
[1] = activity coefficient (dimensionless); of the first substance listed, at infinite dilution; xn = mol fraction of the nth substance listed; conditions: 101.33 kPa, Liquid, Chromatography, x1 = 0
[2] = 101.3 kPa, Liquid, Vibrating tube method

SMILES | activity coefficient ([1]; 323.15 K) | activity coefficient ([1]; 333.15 K) | activity coefficient ([1]; 343.15 K) | activity coefficient ([1]; 353.15 K) | activity coefficient ([1]; 363.15 K) | mass density ([2]; 323.15 K) | mass density ([2]; 333.15 K) | mass density ([2]; 343.15 K) | mass density ([2]; 353.15 K) | mass density ([2]; 363.15 K)
Cc1ccccc1C [1,2-dimethylbenzene] + CCC[n+]1ccn(C)c1.[Br-] | 4.19 ± 0.44 | 4.3 ± 0.45 | 4.49 ± 0.47 | 4.71 ± 0.49 | 4.97 ± 0.52 | – | – | – | – | –
Cc1cccc(C)c1 [1,3-dimethylbenzene] + CCC[n+]1ccn(C)c1.[Br-] | 5.91 ± 0.62 | 6.04 ± 0.63 | 6.18 ± 0.65 | 6.33 ± 0.67 | 6.47 ± 0.68 | – | – | – | – | –
Cc1ccc(C)cc1 [1,4-dimethylbenzene] + CCC[n+]1ccn(C)c1.[Br-] | 5.65 ± 0.59 | 5.8 ± 0.61 | 5.95 ± 0.63 | 6.11 ± 0.64 | 6.3 ± 0.66 | – | – | – | – | –
C1COCCO1 [1,4-dioxane] + CCC[n+]1ccn(C)c1.[Br-] | 1.01 ± 0.1 | 1.05 ± 0.11 | 1.11 ± 0.11 | 1.17 ± 0.12 | 1.23 ± 0.13 | – | – | – | – | –
CCC[n+]1ccn(C)c1.[Br-] [1-methyl-3-propylimidazolium bromide] | – | – | – | – | – | 1317.74 ± 2.5 kg/m3 | 1310.86 ± 2.5 kg/m3 | 1304.04 ± 2.4 kg/m3 | 1297.27 ± 2.4 kg/m3 | 1290.33 ± 2.4 kg/m3
CC(C)CC(C)(C)C [2,2,4-trimethylpentane] + CCC[n+]1ccn(C)c1.[Br-] | 115 ± 12 | 111 ± 12 | 108 ± 11 | 104 ± 11 | 101 ± 11 | – | – | – | – | –
CC(C)CO [2-methyl-1-propanol] + CCC[n+]1ccn(C)c1.[Br-] | 0.426 ± 0.049 | 0.406 ± 0.047 | 0.39 ± 0.046 | 0.378 ± 0.045 | 0.368 ± 0.044 | – | – | – | – | –
CC(C)CCO [3-methylbutan-1-ol] + CCC[n+]1ccn(C)c1.[Br-] | 0.62 ± 0.066 | 0.587 ± 0.063 | 0.564 ± 0.061 | 0.548 ± 0.059 | 0.531 ± 0.058 | – | – | – | – | –
CC(C)=O [acetone] + CCC[n+]1ccn(C)c1.[Br-] | 1.06 ± 0.11 | 1.14 ± 0.12 | 1.21 ± 0.12 | 1.29 ± 0.13 | 1.37 ± 0.14 | – | – | – | – | –
CC#N [acetonitrile] + CCC[n+]1ccn(C)c1.[Br-] | 0.37 ± 0.04 | 0.39 ± 0.05 | 0.41 ± 0.05 | 0.44 ± 0.05 | 0.48 ± 0.05 | – | – | – | – | –
c1ccccc1 [benzene] + CCC[n+]1ccn(C)c1.[Br-] | 1.7 ± 0.18 | 1.79 ± 0.19 | 1.89 ± 0.2 | 2 ± 0.21 | 2.11 ± 0.22 | – | – | – | – | –
CCCCO [butan-1-ol] + CCC[n+]1ccn(C)c1.[Br-] | 0.438 ± 0.05 | 0.417 ± 0.048 | 0.402 ± 0.047 | 0.388 ± 0.046 | 0.379 ± 0.045 | – | – | – | – | –
CCC(C)O (stereo not given) [butan-2-ol] + CCC[n+]1ccn(C)c1.[Br-] | 0.52 ± 0.057 | 0.5 ± 0.055 | 0.485 ± 0.054 | 0.471 ± 0.053 | 0.462 ± 0.052 | – | – | – | – | –
C1CCCCC1 [cyclohexane] + CCC[n+]1ccn(C)c1.[Br-] | 66.2 ± 7 | 64.5 ± 6.8 | 62.9 ± 6.6 | 61.6 ± 6.5 | 60.4 ± 6.4 | – | – | – | – | –
C1=CCCCC1 [cyclohexene] + CCC[n+]1ccn(C)c1.[Br-] | 21.7 ± 2.3 | 20.6 ± 2.2 | 19.7 ± 2.1 | 18.8 ± 2 | 18.1 ± 1.9 | – | – | – | – | –
CCCCCCCCCC [decane] + CCC[n+]1ccn(C)c1.[Br-] | 130 ± 14 | 124 ± 13 | 118 ± 12 | 112 ± 12 | 108 ± 11 | – | – | – | – | –
ClCCl [dichloromethane] + CCC[n+]1ccn(C)c1.[Br-] | 0.27 ± 0.04 | 0.29 ± 0.04 | 0.31 ± 0.04 | 0.34 ± 0.04 | 0.38 ± 0.05 | – | – | – | – | –
